Experiments:
Lactoylglutathione lyase [1] = biological target: T1, Lactoylglutathione lyase (Homo sapiens, UniProt Q04760); assay: Inhibition of recombinant human N-terminal Met and 6-His-tagged Glyoxalase-1 (Ala2 to Met184 residues) at 25 uM using glutathione and methylglyoxal as substrates preincubated for 15 mins followed by enzyme addition by double beam UV-vis spectrophotometric method relative to control
Target sequence in this assay (Q04760 2-184 limits assumed): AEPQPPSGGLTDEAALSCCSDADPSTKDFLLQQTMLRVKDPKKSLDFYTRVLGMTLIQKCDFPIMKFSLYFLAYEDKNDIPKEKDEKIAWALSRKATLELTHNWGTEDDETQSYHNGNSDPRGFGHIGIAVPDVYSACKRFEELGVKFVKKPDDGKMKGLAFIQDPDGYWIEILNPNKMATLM

Lactoylglutathione lyase [2] = biological target: T1, Lactoylglutathione lyase; assay: Inhibition of recombinant human N-terminal Met and 6-His-tagged Glyoxalase-1 (Ala2 to Met184 residues) using glutathione and methylglyoxal as substrates preincubated for 15 mins followed by enzyme addition by double beam UV-vis spectrophotometric method
Target sequence in this assay (Q04760 whole entry): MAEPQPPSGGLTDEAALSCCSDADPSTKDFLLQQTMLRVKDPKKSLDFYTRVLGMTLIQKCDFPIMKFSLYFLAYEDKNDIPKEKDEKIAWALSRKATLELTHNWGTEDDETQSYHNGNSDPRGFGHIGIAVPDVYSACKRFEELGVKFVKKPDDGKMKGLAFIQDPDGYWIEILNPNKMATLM

| SMILES | inhibition (Lactoylglutathione lyase [1]) | IC50 (Lactoylglutathione lyase [2]) |
| --- | --- | --- |
| Nc1ccc(/N=N/c2cccc(S(N)(=O)=O)c2)c2ccc(O)cc12 | 66% | 21.8 µM |
| Cc1ccc(/N=N/c2cc3ccccc3c(C(=O)O)c2O)cc1S(N)(=O)=O |  | > 100 µM |
| O=S(=O)(O)c1ccc(/N=N/c2ccc(O)c3ncccc23)cc1 | 75% | 9.7 µM |
| O=C(O)c1ccc(/N=N/c2ccc(O)c3ncccc23)cc1 | 79.9% | 4.45 µM |
| NS(=O)(=O)c1cccc(/N=N/c2ccc(O)c(C(=O)O)c2)c1 | 76.5% | 8.66 µM |
| Nc1ccc(/N=N/c2cccc(S(N)(=O)=O)c2)c2ccccc12 | 28.1% | 85.8 µM |
| NS(=O)(=O)c1cccc(/N=N/c2ccc(O)c3ncccc23)c1 | 98.3% | 1.36 µM |
| Cc1ccc(/N=N/c2ccc(O)c(C(=O)O)c2)cc1S(N)(=O)=O | 67.7% | 11.5 µM |
| O=C(O)c1cccc(/N=N/c2ccc(O)c3ncccc23)c1 | 90.7% | 4.37 µM |
| NS(=O)(=O)c1cccc(/N=N/c2cc(C(=O)O)c(O)c3ccccc23)c1 | 96.5% | 1.22 µM |
| Oc1ccc(/N=N/c2ccccc2)c2cccnc12 | 82.8% | 9.13 µM |
| NS(=O)(=O)c1cccc(/N=N/c2ccc(O)cc2)c1 | 59.9% | 13.4 µM |
| NS(=O)(=O)c1cccc(/N=N/c2ccc(O)c3ccccc23)c1 | 38.3% | 52.2 µM |
| NS(=O)(=O)c1cccc(/N=N/c2cc3ccc(=O)oc3cc2O)c1 | 64.4% | 18.9 µM |
| Cc1ccc(/N=N/c2cc(C(=O)O)c(O)c3ccccc23)cc1S(N)(=O)=O | 100% | 1.13 µM |

The remaining lines, values ahead:

| inhibition (Lactoylglutathione lyase [1]) | IC50 (Lactoylglutathione lyase [2]) | SMILES |
| --- | --- | --- |
| 39% | 37.5 µM | NS(=O)(=O)c1cccc(/N=N/c2c(O)ccc3ccccc23)c1 |
| 34.5% | 45 µM | Cc1ccc(/N=N/c2c(O)ccc3ccccc23)cc1S(N)(=O)=O |
| 24.7% | 95.7 µM | Cc1ccc(/N=N/c2ccc(N)c3ccccc23)cc1S(N)(=O)=O |
| 57.4% | 18.6 µM | Cc1ccc(/N=N/c2cc3ccccc3c(C=O)c2O)cc1S(N)(=O)=O |
| 59% | 17.8 µM | Cc1ccc(/N=N/c2cc3ccc(=O)oc3cc2O)cc1S(N)(=O)=O |
| 57.2% | 18.9 µM | Cc1ccc(/N=N/c2ccc(N)c3cc(O)ccc23)cc1S(N)(=O)=O |
|  | > 100 µM | Cc1ccc(/N=N/c2ccc(N)c3cccc(O)c23)cc1S(N)(=O)=O |
| 92.1% | 1.28 µM | Cc1ccc(/N=N/c2ccc(O)c3ncccc23)cc1S(N)(=O)=O |
| 54% | 24 µM | Cc1ccc(/N=N/c2c(O)ccc3cccc(N)c23)cc1S(N)(=O)=O |
| 76.4% |  | Cc1ccc(/N=N/c2ccc(N)c3ccc(O)cc23)cc1S(N)(=O)=O |
